By Ki is commonly meant the dissociation constant of the complex between target and ligand, obtained from inhibition or displacement. Broadly, the EC50 is the concentration at which the effect is half-maximal. A high value points to a need for much substance.

Here are results for 21 compounds from ChEMBL document CHEMBL5356990, “Overview of CFTR activators and their recent studies for dry eye disease: a review” (RSC Med Chem, 2023).

Assay [1] deals with T1, Cystic fibrosis transmembrane conductance regulator (Homo sapiens, UniProt P13569). Description: Binding affinity at human wildtype CFTR assessed as inhibition constant by fluorescence based analysis.
T1 sequence (P13569 whole entry): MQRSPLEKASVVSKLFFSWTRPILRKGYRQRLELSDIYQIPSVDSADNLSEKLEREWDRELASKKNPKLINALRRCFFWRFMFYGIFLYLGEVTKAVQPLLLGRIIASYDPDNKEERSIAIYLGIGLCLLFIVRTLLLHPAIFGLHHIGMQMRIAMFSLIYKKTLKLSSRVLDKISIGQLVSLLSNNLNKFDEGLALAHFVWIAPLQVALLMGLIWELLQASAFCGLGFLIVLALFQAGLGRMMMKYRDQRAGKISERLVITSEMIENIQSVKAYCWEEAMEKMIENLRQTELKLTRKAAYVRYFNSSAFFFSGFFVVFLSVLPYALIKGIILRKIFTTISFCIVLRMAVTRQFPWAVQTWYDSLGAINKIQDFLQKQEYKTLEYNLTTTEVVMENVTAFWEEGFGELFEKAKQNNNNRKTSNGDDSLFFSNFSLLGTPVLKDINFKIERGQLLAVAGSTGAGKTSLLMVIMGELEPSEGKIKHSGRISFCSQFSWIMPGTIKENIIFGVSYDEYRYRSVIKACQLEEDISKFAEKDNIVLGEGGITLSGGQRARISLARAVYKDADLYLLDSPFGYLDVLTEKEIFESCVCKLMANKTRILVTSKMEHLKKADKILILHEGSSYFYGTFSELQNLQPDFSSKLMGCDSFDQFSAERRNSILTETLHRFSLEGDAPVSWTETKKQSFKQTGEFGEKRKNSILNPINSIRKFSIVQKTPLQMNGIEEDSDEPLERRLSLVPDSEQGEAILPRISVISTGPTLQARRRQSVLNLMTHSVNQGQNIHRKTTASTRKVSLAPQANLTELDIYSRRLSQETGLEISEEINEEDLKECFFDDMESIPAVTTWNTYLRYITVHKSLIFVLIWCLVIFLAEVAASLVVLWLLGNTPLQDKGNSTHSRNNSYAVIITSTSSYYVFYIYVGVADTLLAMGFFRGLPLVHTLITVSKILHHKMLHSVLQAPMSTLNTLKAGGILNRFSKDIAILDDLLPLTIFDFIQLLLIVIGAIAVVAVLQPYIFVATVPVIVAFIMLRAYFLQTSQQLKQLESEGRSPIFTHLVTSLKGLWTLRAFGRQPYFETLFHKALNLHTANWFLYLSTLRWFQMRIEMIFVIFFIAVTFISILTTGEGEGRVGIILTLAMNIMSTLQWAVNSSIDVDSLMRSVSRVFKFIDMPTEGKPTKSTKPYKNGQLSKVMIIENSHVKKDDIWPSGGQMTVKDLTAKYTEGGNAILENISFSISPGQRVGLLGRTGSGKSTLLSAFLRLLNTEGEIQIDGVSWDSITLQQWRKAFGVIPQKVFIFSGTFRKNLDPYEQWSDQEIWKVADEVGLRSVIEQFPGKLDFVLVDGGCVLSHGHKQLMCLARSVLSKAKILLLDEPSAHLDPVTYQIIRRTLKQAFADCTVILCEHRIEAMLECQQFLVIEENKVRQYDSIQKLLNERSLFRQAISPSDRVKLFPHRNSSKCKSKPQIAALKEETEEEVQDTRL
Assay [2] can be described thus: (§1) In vivo activation CFTR expressed in wild-type CD1 mouse assessed as hyperpolarization of ocular surface by measuring potential difference at 1 to 10 uM. Particulars: dose 1-10 µM. The class given is functional.
Assay [3] concerns the target T1, Cystic fibrosis transmembrane conductance regulator. The assay is described as follows: Activation of wildtype CFTR (unknown origin) expressed in CHO cells. The class given is cell-based.
Assay [4] shares this target. The assay is described as follows: Activation of human CFTR expressed in rat FRT cells. The assay is classed as cell-based.
The target is the same in assay [5]. Description: Activation of wildtype CFTR in human Calu-3 cells. The assay is classed as cell-based.
For assay [6] the target is unchanged. The assay is described as follows: Activation of CFTR (unknown origin).
Assay [7] deals with Cystic fibrosis transmembrane conductance regulator (Homo sapiens), P13569 [G551D]. The assay is described as follows: Activation of CFTR G551D mutant (unknown origin). Particulars: filed as opener.
Chain of Cystic fibrosis transmembrane conductance regulator (Homo sapiens), P13569 [G551D] (P13569 whole entry G551D): as the sequence (P13569 whole entry) above, with G551D counted along it
The test system of the next assay is Mus musculus. The description is as §1. The class given is functional. Particulars: dose 1-10 µM.
In assay [8] the target is T1, Cystic fibrosis transmembrane conductance regulator. The assay is described as follows: Activation of human wildtype CFTR.
Assay [9] has the same target. The assay is described as follows: Activation of human wildtype CFTR expressed in rat FRT cells by patch clamp analysis. The assay is classed as cell-based. A general note: The patch-clamp technique gives a direct electrical read-out from membranes.

Each structure is given as a SMILES string.

Regarding `O=c1cc(-c2ccncc2)oc2c1cc(-c1ccco1)c1ccccc12`, the Ki in [1] was 1700 nM.

For `CNc1nc(Nc2ccc([N+](=O)[O-])cc2)nc(OCC(F)(F)C(F)F)n1`, the Activity in assay [2] is -10 mV. In assay [3], `CCCn1cnc2c1N=CN1C2=N[C@](C)(C(=O)O)[C@@H](O)[C@@]1(C)O` registered a concentration for a half-maximal effect (EC50) of 2100 nM. Turning to `O=C(c1cccs1)N1N=C(c2ccccc2)CC1c1ccccc1[N+](=O)[O-]` (stereo unspecified), a half-maximal response in [4] (EC50) required 385 nM. Besides, the Activity in assay [2] was -4.1 mV. For `COc1ccc(Cc2nnc(NC(=O)Cc3c(F)cccc3Cl)s2)cc1OC`, in assay [4], the half-maximal effective concentration (EC50) worked out at 571 nM. Further, the Activity in [2] is on record as -3.1 mV. In the case of `O=c1cc(-c2ccc(O)cc2)oc2cc(O)cc(O)c12` [APIGENIN], the inhibition constant (Ki) in assay [1] is 4800 nM.

In assay [5], `CC(C)Cn1c(=O)n(C)c(=O)c2[nH]cnc21` [ISOBUTYLMETHYLXANTHINE] yielded an EC50 of 45000 nM. That is a double-digit micromolar value.

With `CC(C)c1ccc(NC(=O)[C@H](c2ccccc2)N(C)C(=O)Cc2c[nH]c3ccccc23)cc1`, it took 70 nM to reach a half-maximal effect in assay [6] (EC50). This lies in the double-digit nanomolar range. For the compound `CCCCc1c(-c2ccc(O)cc2)[nH]c2nccnc12`, the Activity in assay [7] worked out at 1.5 nM.

In assay [4], `Cc1cc(C)cc(/N=C2/NC(=O)/C(=C/c3ccc(O)cc3)S2)c1` showed a half-maximal effective concentration (EC50) of 332 nM. Further, in assay [2], the Activity is -8.6 mV. As for `CC(C)(C)c1cc(C(C)(C)C)c(NC(=O)c2c[nH]c3ccccc3c2=O)cc1O`, the Activity in the assay on Mus musculus was -1.8 mV. In assay [4], `COc1ccccc1CC(=O)Nc1nnc(Cc2ccc(OC)c(OC)c2)s1` yielded a 50% effective concentration (EC50) of 340 nM. The Activity in assay [2] is reported as -9.9 mV. In turn, `CNc1nc(Nc2ccccc2)nc(OCC(F)(F)C(F)F)n1` returned a 50% effective concentration (EC50) in assay [8] of approximately 30 nM. In the case of `CC(C)Cn1c(=O)c2[nH]cnc2n(C)c1=O`, in [5], the half-maximal effective concentration (EC50) stood at 100000 nM.

With `CCN(CC)c1nc(Nc2ccccc2)nc(OC(C(F)(F)F)C(F)(F)F)n1`, the Activity in assay [2] is listed as -8.5 mV.

On to `COc1ccc(Cc2nnc(NC(=O)Cc3cccs3)s2)cc1OC`, for which a half-maximal effect in assay [4] (EC50) was put at 685 nM. In addition, the Activity in assay [2] is -2.5 mV.

In the case of `CNc1nc(Nc2cccc([N+](=O)[O-])c2)nc(OCC(F)(F)F)n1`, a half-maximal effect in [4] (EC50) was put at 400 nM. Also, in assay [2], the Activity is listed as -7.4 mV. For `CCOc1ccccc1CC(=O)Nc1nnc(Cc2ccc(OC)c(OC)c2)s1`, in that order: 377 nM and -3.4 mV. As to `CC/N=C1\S/C(=C\c2ccc3c(c2)OCO3)C(=O)N1CC`, the half-maximal effective concentration (EC50) in [4] turned out to be 2000 nM. Also, the Activity in [2] was -2.5 mV.

As to `CCCn1cnc2c1N=CN1C2=N[C@](C)(C(=O)O)[C@H](O)[C@@]1(C)O`, a half-maximal response in [3] (EC50) required 2900 nM.

In the case of `Nc1ccc([N+](=O)[O-])cc1-c1nc2ccccc2n(Cc2ccccc2)c1=O`, the half-maximal effective concentration (EC50) is approximately 200 nM in [9] and 138 nM in assay [4]. The Activity in assay [2] is reported as -9.1 mV.
